For data set [1] the following is noted: drug substance without excipients.
For data set [2] the following is noted: especially in its phosphate salt form.
For data set [3] the following is noted: especially in its phosphate salt form. The source holds these as a separate data set.
The conditions of data set [4]: drug substance without MCC.

On to `N#Cc1ccc([C@H]2CCc3cncn32)c(F)c1` [compound of formula (1), 4-[(5R)-6,7-dihydro-5H-pyrrolo[1,2-c]imidazol-5-yl]-3-fluorobenzonitrile], for which the “flowability, ffc (poorly flowable)” value in data set [1] is given as 1.1. Further, the “drug substance bulk density” value in data set [2] was 0.1 to 0.3 g/mL. In addition, the hygroscopicity entry in data set [3] was “hygroscopic”. In addition, the primary particle size entry in data set [4] is on record as “ca. 4 micron”.

The values are drawn from patent US20170202808A1, “PHARMACEUTICAL DOSAGE FORMS” (Novartis AG, priority 2014, published 2017).
